# Experimental data published in patent US20250145948A1, “METHOD FOR ASSESSING DIFFERENTIATION POTENTIAL OF CELLS IN CULTURE BROTH IN DIFFERENTIATION OF PLURIPOTENT STEM CELLS INTO NEURAL CELLS OF MIDBRAIN FLOOR PLATE REGION” (SUMITOMO PHARMA CO., LTD., priority 2022, published 2025).
# What was measured:
# iPS cell line (1231A3) [1] = experiment: Ratio of Corin-positive cells after induction of differentiation into neural cells of the midbrain floor plate region (cell sorter); format: cell-based, human; settings: cell group A1: pretreatment with SAG 300 nM from Day -1 to Day 0; culture day 12 for the induction of differentiation
# Procedure: (§1) An iPS cell line (formal name: 1231A3) as a line for research was used and cultured in a medium having composition given below. The medium was supplemented (with pretreatment) with SAG (N-Methyl-N′-(3-pyridinylbenzyl)-N′-(3-chlorobenzo[b]thiophene-2-carbonyl)-1,4-diaminocyclohexane, final concentration: 300 nM) for 1 day from 1 day before the start of differentiation culture (Day −1) to the start day of differentiation (Day 0) to establish a cell group having high induction efficiency (cell group A1). An untreated cell group (cell group A2) was also established for comparison by cell culture under the same conditions as in the cell group A1 except that the medium was not supplemented with SAG.
# As for the medium in the culture experiment A, AK03N basal medium manufactured by Ajinomoto Co., Inc. was used before the start of differentiation, and GMEM containing 8% KSR was used as a basal medium at and after the start of differentiation (Day 0).
# (§2) The pluripotent stem cells in each of six types of cell groups provided in the culture experiments A, B, and C were induced to differentiate into neural cells of the midbrain floor plate region in accordance with a predetermined protocol. […] The ratio of Corin-positive cells in each cell group was measured using a cell sorter (BD FACSJazz, BD Accuri or Furukawa PERFLOW Sort) on 12 days from the start of differentiation. […]
# iPS cell line (1231A3) [2] = experiment: Concentration analysis of NT-3 in culture supernatant (Bioplex); format: cell-based, human; settings: cell group A1 (SAG 300 nM pretreatment)
# Procedure: as §1, §2
smiles,measurement,setting,value
"CNC1CCC(N(Cc2cccc(-c3ccncc3)c2)C(=O)c2sc3ccccc3c2Cl)CC1 (stereo not drawn) [SAG, N-Methyl-N′-(3-pyridinylbenzyl)-N′-(3-chlorobenzo[b]thiophene-2-carbonyl)-1,4-diaminocyclohexane]",ratio of Corin-positive cells,iPS cell line (1231A3) [1],90%
same,NT-3 in culture supernatant,iPS cell line (1231A3) [2]; sample collected 3 days after the start of differentiation,specifically increased
same,NT-3 in culture supernatant,iPS cell line (1231A3) [2]; samples collected 1 day and 5 days after the start of differentiation,not detected
